molecular target: IDO1 (Homo sapiens, UniProt P14902); assay: IDO1 Cellular Assay in HeLa Cells Stimulated with IFNγ; format: cell-based; conditions: IFNγ 100 ng/mL, 300 uM L-tryptophan, about 48 hours, read-out: IDO HeLa Cell Assay, IC50
Method: Biological Assays IDO1 Cellular Assay in HeLa Cells Stimulated with IFNγ
HeLa cells were cultured in complete HeLa culture medium (90% EMEM, 10% heat-inactivated fetal bovine serum) and expanded to about 1×10^9 cells. The cells were then collected and frozen down at 1×10^7 cells/vial in 1 mL frozen medium (90% complete HeLa culture medium, 10% DMSO).
Compounds to be tested were serially diluted in ten 3-fold steps in DMSO starting from 10 mM DMSO stocks in Echo low volume plate(s). Compound dilutions or DMSO alone were then dispensed from the dilution plate(s) into Greiner black 384-well assay plate(s) (catalog #781086, 50 nL/well) using an Echo 550 acoustic liquid handler (Labcyte).
Frozen HeLa cells were thawed and transferred into HeLa assay medium (99% complete HeLa culture medium, 1% Pen/Strep) with 20 mL medium/vial of cells. The cells were spun down at 250 g in a table top centrifuge for 5 min and suspended in same volume of HeLa assay medium. The cells were then counted and adjusted to a density of 2×10^5 cells/mL in HeLa assay medium. Sterile L-tryptophan were added to the cells with final concentration of 300 uM L-tryptophan. A small aliquot (2 mL/plate) of HeLa cells were set aside and were not treated with IFNγ, to serve as the Max-E control.
HeLa cells with and without IFNγ were dispensed to the respective wells of 384-well assay plates containing the compounds. The plates were incubated for about 48 hours at a 37° C., 5% CO2 incubator. Afterwards, 12 μL of 0.5 M methyl isonipecotate in dimethyl sulfoxide were added into each well and the plates were sealed and incubated at 37° C. without CO2 overnight. The plates were centrifuged for 1 min at 200×g. The resulting fluorescence was measured in a Spectramax plate reader (Molecular Devices) with a 400 nm excitation filter and a 510 nm emission filter.
The fluorescence intensity of each well was corrected for the background observed in wells with non-IFNγ-treated cells and was expressed as a fraction of the intensity observed in wells of IFNγ-treated cells and DMSO only. Potencies were calculated by linear least squares fit to the four parameter logistic IC50 equation.

Chain of IDO1 (P14902 whole entry): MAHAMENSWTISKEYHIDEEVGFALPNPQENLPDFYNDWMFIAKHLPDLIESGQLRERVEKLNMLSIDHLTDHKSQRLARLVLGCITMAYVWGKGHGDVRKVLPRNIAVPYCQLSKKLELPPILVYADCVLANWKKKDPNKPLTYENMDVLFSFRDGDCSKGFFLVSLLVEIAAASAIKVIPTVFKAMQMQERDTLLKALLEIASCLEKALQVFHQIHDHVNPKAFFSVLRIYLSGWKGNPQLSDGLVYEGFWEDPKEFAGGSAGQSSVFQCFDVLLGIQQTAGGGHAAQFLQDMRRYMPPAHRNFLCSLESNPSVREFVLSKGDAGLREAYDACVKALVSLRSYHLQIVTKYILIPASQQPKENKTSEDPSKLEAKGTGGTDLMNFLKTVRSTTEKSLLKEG

Point of comparison: `O=C(Nc1ccc(F)cc1F)c1ccc(C2(c3nc4ncc(C(F)(F)F)cc4[nH]3)CCC2)cc1` [Example 32, N-(2,4-difluorophenyl)-4-{1-[6-(trifluoromethyl)-1H-imidazo[4,5-b]pyridin-2-yl]cyclobutyl}benzamide], IC50 2.65 nM. Against it:
- COc1cc(C(F)(F)F)ncc1-c1ccc(C2(c3nc4cc(C(F)(F)F)cnc4[nH]3)COC2)cc1 [Example 41, 2-(3-{4-[4-methoxy-6-(trifluoromethyl)pyridin-3-yl]phenyl}oxetan-3-yl)-6-(trifluoromethyl)-3H-imidazo[4,5-b]pyridine] — 2.9-fold higher, 7.64 nM
- N#Cc1cnc2nc(C3(c4ccc(C(=O)NC5CCCCC5)cc4)CC(F)(F)C3)[nH]c2c1 [Example 28, 4-(1-(6-Cyano-1H-imidazo[4,5-b]pyridin-2-yl)-3,3-difluorocyclobutyl)-N-cyclohexylbenzamide] — 340-fold higher, 890 nM
- N#Cc1cccc(C(=O)Nc2ccc(C3(c4nc5cc(C#N)cnc5[nH]4)CCC3)cc2Cl)c1 [Example 13, N-(2-chloro-4-(1-(6-cyano-3H-imidazo[4,5-b]pyridin-2-yl)cyclobutyl)phenyl)-3-cyanobenzamide] — 2.7-fold higher, 7.18 nM
- N#Cc1cccc(C(=O)Nc2ccc(C3(c4nc5ccc(Cl)cc5[nH]4)CC(O)C3)cc2)c1 (centres unmarked) [Example 23, N-(4-(1-(6-chloro-1H-benzo[d]imidazol-2-yl)-3-hydroxycyclobutyl)phenyl)-3-cyanobenzamide] — 16-fold higher, 43.4 nM
- N#Cc1cccc(NC(=O)c2ccc(C3(c4nc5ncc(C(F)(F)F)cc5[nH]4)CCC3)cc2)c1 [Example 30, N-(3-cyanophenyl)-4-{1-[6-(trifluoromethyl)-1H-imidazo[4,5-b]pyridin-2-yl]cyclobutyl}benzamide] — 1.9-fold higher, 5.09 nM
- N#Cc1cnc2nc(C3(c4ccc(NC(=O)c5cccc(Cl)c5)cc4)CCC3)[nH]c2c1 [Example 2, 3-Chloro-N-(4-(1-(6-cyano-1H-imidazo[4,5-b]pyridin-2-yl)cyclobutyl)phenyl)benzamide] — within 1.5-fold, 1.97 nM
- O=C(Nc1cccc(F)c1)c1ccc(C2(c3nc4ncc(C(F)(F)F)cc4[nH]3)CCC2)cc1 [Example 31, N-(3-fluorophenyl)-4-{1-[6-(trifluoromethyl)-1H-imidazo[4,5-b]pyridin-2-yl]cyclobutyl}benzamide] — within 1.5-fold, 2.09 nM
- O=C(Nc1cc(Cl)ccc1F)c1ccc(C2(c3nc4ncc(C(F)(F)F)cc4[nH]3)CCC2)cc1 [Example 37, N-(5-chloro-2-fluorophenyl)-4-{1-[6-(trifluoromethyl)-1H-imidazo[4,5-b]pyridin-2-yl]cyclobutyl}benzamide] — within 1.5-fold, 2.03 nM
- O=C(Nc1ccc(C2(c3nc4cc(Br)cnc4[nH]3)CCC2)cc1Cl)c1cccc(Br)c1 [Example 12, 3-Bromo-N-(4-(1-(6-bromo-3H-imidazo[4,5-b]pyridin-2-yl)cyclobutyl)-2-chlorophenyl)benzamide] — 1.5-fold lower, 1.73 nM
- O=C(Nc1ccc(C2(c3nc4ccccc4[nH]3)CCC2)cc1)c1cccc(Cl)c1 [Example 4, N-(4-(1-(1H-benzo[d]imidazol-2-yl)cyclobutyl)phenyl)-3-chlorobenzamide] — within 1.5-fold, 3.01 nM
- Cn1ccc(Nc2ccc(C3(c4nc5cc(C#N)cnc5[nH]4)CCC3)cc2CO)n1 [Example 21, 2-(1-(3-(Hydroxymethyl)-4-((1-methyl-1H-pyrazol-3-yl)amino)phenyl)cyclobutyl)-3H-imidazo[4,5-b]pyridine-6-carbonitrile] — 310-fold higher, 819 nM
- O=C(Nc1cncc(Cl)c1)c1ccc(C2(c3nc4ncc(C(F)(F)F)cc4[nH]3)CCC2)cc1 [Example 33, N-(5-chloropyridin-3-yl)-4-{1-[6-(trifluoromethyl)-1H-imidazo[4,5-b]pyridin-2-yl]cyclobutyl}benzamide] — 3.8-fold higher, 9.94 nM
- N#Cc1cccc(NC(=O)c2ccc(C3(c4nc5ncc(C#N)cc5[nH]4)CC(F)(F)C3)cc2)c1 [Example 38, 4-[1-(6-cyano-1H-imidazo[4,5-b]pyridin-2-yl)-3,3-difluorocyclobutyl]-N-(3-cyanophenyl)benzamide] — 1.9-fold higher, 5.09 nM
- C=Cc1cc(C2(c3nc4cc(C#N)cnc4[nH]3)CCC2)ccc1Nc1ccn(C)n1 [Example 20, 2-(1-(4-((1-Methyl-1H-pyrazol-3-yl)amino)-3-vinylphenyl)cyclobutyl)-3H-imidazo[4,5-b]pyridine-6-carbonitrile] — 66-fold higher, 176 nM
- N#Cc1cnc2[nH]c(C3(c4ccc(NC(=O)OC5CC5)cc4)CCC3)nc2c1 [Example 22, Cyclopropyl (4-(1-(6-cyano-3H-imidazo[4,5-b]pyridin-2-yl)cyclobutyl)phenyl)carbamate] — 16-fold higher, 41.8 nM
- CC(C)CNC(=O)c1ccc(C2(c3nc4ncc(C(F)(F)F)cc4[nH]3)CCC2)cc1 [Example 35, N-(2-methylpropyl)-4-{1-[6-(trifluoromethyl)-1H-imidazo[4,5-b]pyridin-2-yl]cyclobutyl}benzamide] — 15-fold higher, 39.6 nM
- Cc1cc(C2(c3nc4cc(C#N)cnc4[nH]3)CCC2)ccc1NC(=O)c1cccc(C#N)c1 [Example 15, 3-Cyano-N-(4-(1-(6-cyano-3H-imidazo[4,5-b]pyridin-2-yl)cyclobutyl)-2-methylphenyl)benzamide] — 6-fold higher, 15.9 nM
- N#Cc1cccc(C(=O)Nc2ccc(C3(c4nc5cc(C(F)(F)F)cnc5[nH]4)CCC3)cc2)c1 [Example 6, 3-Cyano-N-(4-(1-(6-(trifluoromethyl)-3H-imidazo[4,5-b]pyridin-2-yl)cyclobutyl)phenyl)benzamide] — within 1.5-fold, 3.18 nM
- N#Cc1ccc(F)c(NC(=O)c2ccc(C3(c4nc5ncc(C(F)(F)F)cc5[nH]4)CCC3)cc2)c1 [Example 36, N-(5-cyano-2-fluorophenyl)-4-{1-[6-(trifluoromethyl)-1H-imidazo[4,5-b]pyridin-2-yl]cyclobutyl}benzamide] — 2.9-fold higher, 7.69 nM
- N#Cc1cccc(C(=O)Nc2ccc(C3(c4nc5cc(C#N)cnc5[nH]4)CCC3)cc2C#N)c1 [Example 14, 3-cyano-N-(2-cyano-4-(1-(6-cyano-3H-imidazo[4,5-b]pyridin-2-yl)cyclobutyl)phenyl)benzamide] — 53-fold higher, 140 nM
- Cc1cccc(NC(=O)c2ccc(C3(c4nc5ncc(C#N)cc5[nH]4)CC(F)(F)C3)cc2)n1 [Example 29, 4-(1-(6-Cyano-1H-imidazo[4,5-b]pyridin-2-yl)-3,3-difluorocyclobutyl)-N-(6-methylpyridin-2-yl)benzamide] — 220-fold higher, 590 nM
- O=C(NC1CCCCC1)c1ccc(C2(c3nc4ncc(C(F)(F)F)cc4[nH]3)CCC2)cc1 [Example 34, N-cyclohexyl-4-{1-[6-(trifluoromethyl)-1H-imidazo[4,5-b]pyridin-2-yl]cyclobutyl}benzamide] — 57-fold higher, 152 nM

Source: US11208407B2, “Substituted phenyl compounds as indoleamine 2,3-dioxygenase (IDO) inhibitors” (Merck Sharp & Dohme Corp., priority 2017, dated 2021)
